Patent publication US8426429B2, “2-amino-quinazoline derivatives useful as inhibitors of β-secretase (BACE)” (Jansssen Pharmaceutica N.V., priority 2004, dated 2013)

Assays:
Type in all cases: biochemical
β-secretase (BACE) [1] = target: T1, β-secretase (BACE) (Homo sapiens, UniProt P56817); test: BACE Assay-1 (MCA-substrate, IC50); details: procedure of Example 158
T1 construct: purchased Panvera
Experimental: The following standards are reagents were used in this assay: Sodium Citrate trisodium salt dihydrate (Sigma), Citric Acid monohydrate (Merck), PEG8000 (Sigma), MCA-substrate (Bachem), β-secretase (BACE) (Panvera), 96-well plate zwart (Costar (Elscolab)), StatVal (Bachem).
The following standard assay buffer solution was prepared and used in this assay: 0.05 M, pH 5.0 mixture of sodium citrate trisodium salt dihydrate (9.56 g), citric acid monohydrate (3.68 g) and PEG8000 (0.50 g).
The MCA-substrate stock solution was prepared by mixing 10 mg MCA-substrate with 5 mL DMSO for a final solution concentration of 2.0 mg/mL. The substrate work solution was prepared by mixing 0.1 mL substrate in 1.90 mL assay buffer for a final concentration of 0.05 mM. The β-secretase (BACE) work solution was prepared by mixing 8 μL BACE in 2 mL assay buffer for a final concentration of 10 µg/mL.
The screen procedure for this assay was as follows. 60 μL of assay buffer was pippeted into each well of a 96-well plate. To each well was then pipetted 1 μL of test compound at the selected concentration. To each well was then added 20 μL of the β-secretase work solution and […] of the MCA-substrate stock solution.
The procedure for the blank was as follows. 80 μL of assay buffer was pipetted into each well to be used as a blank control. To each well was then added 1 μL of DMSO and 20 μL of MCA-substrate solution in each well.
The procedure for the positive control was as follows. 60 μL of assay buffer was pipetted into each well to be used as a positive control. To each well was then added 1 μL of DMSO, 20 μL of BACE work solution and 20 μL of MCA-substrate stock solution.
For test compounds, measured at multiple concentrations, the measured T0 and T60 values were used to calculate an IC50 value using Graphpad Software (or PIR).

β-secretase (BACE) [2] = target: T1, β-secretase (BACE); test: BACE FS1 % Inhibition Assay; details: for inhibition at 0.3 µM / inhibition at 1 µM / inhibition at 3 µM: read-out: % Inhibition (FS)
Method in brief: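 Percent inhibition per compound concentration was referenced to vehicle-treated enzyme and no-enzyme wells. Enzyme at a 4 μg/mL working stock plus compound was mixed for 20 min at room temperature before the FS1 substrate (300 μg/mL working stock) was added for a 1 h room-temperature reaction.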

β-secretase (BACE) [3] = target: T1, β-secretase (BACE); test: BACE % Inhibition Assay ((Aedens)-[…]-(Dabcyl K-amide) substrate); details: % error ±10%
Experimental: (§1) The substrate stock solution was prepared in DMSO as a 10 mg/mL solution. The substrate working solution was prepared by diluting the 10 mg/mL stock solution with substrate assay buffer to a final concentration of […]. The β-secretase (BACE) working solution was prepared by diluting a 0.83 mg/mL BACE stock solution with enzyme assay buffer to a final concentration of 4 μg/mL.
Test compounds were dissolved in DMSO to 10 mM.
The screening procedure for this assay was as follows: 15 μL of BACE working solution was pipetted into each well of a 96-well plate. To each well was then pipetted 2 μL of test compound at the selected concentration. Test compound and BACE were then mixed with a pipettor and incubated for 20 min at room temperature. To each well was then added 10 μL of the substrate working solution. The plates were then incubated for 1 hour at room temperature.
The procedure for the blank was as follows. 15 μL of assay buffer was pipetted into each well to be used as a blank control. To each well was then added 2 μL of vehicle and 10 μL of substrate working solution. The plates were then incubated for 1 hour at room temperature.
The procedure for the positive control was as follows: 15 μl of BACE working solution was pipetted into each well to be used as a positive control. To each well was then pipetted 2 μL of vehicle. Vehicle and BACE were then mixed with a pipettor and incubated for 20 min at room temperature. To each well was then added 10 μL of the substrate working solution. The plates were the incubated for 1 hour at room temperature.
For test compounds, % inhibition was determined at each concentration as follows: […]

β-secretase (BACE) [4] = target: T1, β-secretase (BACE); test: BACE Assay-2 (FS1 substrate, IC50 and Ki); details: procedure of Example 159, FS1 substrate
Experimental: as §1, with “The FS1-substrate” for “The substrate”
Test compounds were dissolved in DMSO at 10 mM.
The procedure for this assay was as follows: 15 μL of BACE working solution was pipetted into each well of a 96-well plate. To each well was then pipetted 2 μL of test compound at the selected concentration. Test compound and BACE were then mixed with a pipettor and incubated for 20 min at room temperature. To each well was then added 10 μL of the FS1 substrate working solution.
The procedure for the positive control was as follows:15 μL of BACE working solution was pipetted into each well to be used as a positive control. To each well was then pipetted 2 μL of vehicle. Vehicle and BACE were then mixed with a pipettor and incubated for 20 min at room temperature. To each well was then added 10 μL of the FS1 substrate working solution.
For test compounds, measured at multiple concentrations, the measured T0 and T60 values were used to calculate an IC50 value using Graphpad Software (or PIR). For test compounds, Ki inhibition was determined as follows: For each compound concentration and positive control, rate of cleavage of substrate (Vi, where i=compound concentration in μM) was determined as Δ Fluorescence/Δ time (min). Cleavage rates (Vi) were plotted as a function of inhibitor concentration in μM [I]. The Ki was then determined by fitting the following equation to the graph of [I] vs Vi Y=aVmax/(50+24*(1+X/Ki)),

T1 sequence (P56817 46-501): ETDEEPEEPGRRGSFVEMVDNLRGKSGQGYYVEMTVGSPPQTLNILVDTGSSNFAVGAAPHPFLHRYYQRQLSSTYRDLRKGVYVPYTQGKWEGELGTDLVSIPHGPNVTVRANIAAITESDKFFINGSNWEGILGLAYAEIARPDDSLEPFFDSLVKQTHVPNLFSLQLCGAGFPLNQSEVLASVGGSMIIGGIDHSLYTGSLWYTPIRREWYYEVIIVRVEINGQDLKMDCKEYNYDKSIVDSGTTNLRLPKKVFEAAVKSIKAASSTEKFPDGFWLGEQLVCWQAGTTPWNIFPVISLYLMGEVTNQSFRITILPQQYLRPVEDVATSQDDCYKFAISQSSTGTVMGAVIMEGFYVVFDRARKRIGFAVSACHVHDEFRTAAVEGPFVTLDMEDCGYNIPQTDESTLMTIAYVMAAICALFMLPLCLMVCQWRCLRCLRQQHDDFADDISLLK

% Inhibition (β-secretase (BACE) [3]; 3 μM compound) [%]	% Inhibition (β-secretase (BACE) [3]; 0.3 μM compound) [%]	% Inhibition (β-secretase (BACE) [3]; 1 μM compound) [%]	Ki (β-secretase (BACE) [4]) [µM]	Structure (SMILES)	other results
				CN(C(=O)CCCN1Cc2cc(C(=O)c3ccccc3)ccc2N=C1N)C1CCCCC1 [Compound 10]	IC50 (β-secretase (BACE) [1]): 3.7 µM
<30				CCCC(CCCC(=O)N(CC)C1CCCCC1)N1Cc2cc(Oc3ccccc3)ccc2N=C1N (centres unmarked) [Compound 105]	% Inhibition (FS) (β-secretase (BACE) [2]; 0.3 μM test compound): <30%; % Inhibition (FS) (β-secretase (BACE) [2]; 1 μM test compound): <30%; % Inhibition (FS) (β-secretase (BACE) [2]; 3 μM test compound): <30%; % Inhibition (β-secretase (BACE) [3]; 10 μM compound): <30%
				NC1=Nc2ccc(Oc3cccc(NS(=O)(=O)c4ccccc4)c3)cc2CN1CCCCC(=O)N(C1CCCCC1)C1CCCCC1 [Compound 113]	IC50 (β-secretase (BACE) [1]): 0.99 µM
				CCCN1Cc2cc(Oc3cccc(CNS(=O)(=O)c4ccccc4)c3)ccc2N=C1N [Compound 225]	IC50 (β-secretase (BACE) [1]): 2.9 µM
				CCCN1Cc2cc(Oc3cccc(CNCc4cccc(O)c4)c3)ccc2N=C1N [Compound 305]	IC50 (β-secretase (BACE) [1]): 1.4 µM
	<30	66		CC(C)(C)C(=O)NCC(C1CCCCC1)N1Cc2cc(Oc3ccccc3)ccc2N=C1N (centres unmarked) [Compound 317]	
			0.42	CN(C(=O)c1cccc(CN2Cc3cc(-c4ccccc4Oc4ccccc4)ccc3N=C2N)c1)C1CCCCC1 [Compound 326]	inhibition at 0.3 µM (β-secretase (BACE) [2]; 0.3 μM test compound): < 30%; inhibition at 1 µM (β-secretase (BACE) [2]; 1 μM test compound): 35%; inhibition at 3 µM (β-secretase (BACE) [2]; 3 μM test compound): 79%
				CCCN1Cc2cc(Oc3cccc(CNCc4ccccc4OC)c3)ccc2N=C1N [Compound 335]	IC50 (β-secretase (BACE) [1]): 0.24 µM
<30	<30	<30		NC1=Nc2ccc(Oc3ccccc3)cc2CN1Cc1cccc(CNC(=O)C23CC4CC(CC(C4)C2)C3)c1 [Compound 336]	
<30	<30	<30		NC1=Nc2ccc(Oc3ccccc3)cc2CN1Cc1cccc(CNC(=O)C(c2ccccc2)c2ccccc2)c1 [Compound 337]	
<30	<30	<30		CCCC(CCC)C(=O)NCc1cccc(CN2Cc3cc(Oc4ccccc4)ccc3N=C2N)c1 [Compound 338]	
<30	<30	<30		CCCCC(CC)C(=O)NCc1cccc(CN2Cc3cc(Oc4ccccc4)ccc3N=C2N)c1 (centres unmarked) [Compound 339]	
				CCCN1Cc2cc(Oc3cccc(CNCc4c(OC)cccc4OC)c3)ccc2N=C1N [Compound 340]	IC50 (β-secretase (BACE) [1]): 2 µM
72	<30	<30		CCCCC(CC)C(=O)NCC(c1ccccc1)N1Cc2cc(Oc3ccccc3)ccc2N=C1N (centres unmarked) [Compound 341]	
119	50	93		NC1=Nc2ccc(Oc3ccccc3)cc2CN1C(CNC(=O)C1CCCCC1)c1ccccc1 (centres unmarked) [Compound 342]	
118	81	101		CCCC(CNC(=O)C1CCCCC1)N1Cc2cc(Oc3ccccc3)ccc2N=C1N (centres unmarked) [Compound 343]	
				CCCN1Cc2cc(Oc3cccc(CNCc4c(C)cc(C)cc4C)c3)ccc2N=C1N [Compound 344]	IC50 (β-secretase (BACE) [1]): 0.058 µM
119	64	113		NC1=Nc2ccc(Oc3ccccc3)cc2CN1C(CNC(=O)CCC1CCCC1)C1CCCCC1 (centres unmarked) [Compound 366]	
111	<30	80		CC(C)(C)OC(=O)NCC(C1CCCCC1)N1Cc2cc(Oc3ccccc3)ccc2N=C1N (centres unmarked) [Compound 367]	
			0.063	CC(C)CCC(=O)NCC(C1CCCCC1)N1Cc2cc(Oc3ccccc3)ccc2N=C1N (centres unmarked) [Compound 388]	inhibition at 0.3 µM (β-secretase (BACE) [3]; 0.3 μM compound): 107%; inhibition at 1 µM (β-secretase (BACE) [3]; 1 μM compound): 119%; inhibition at 3 µM (β-secretase (BACE) [3]; 3 μM compound): 119%
	<30	50		NC1=Nc2ccc(Oc3ccccc3)cc2CN1C(CNC(=O)C1(c2ccc(Cl)cc2)CCCC1)C1CCCCC1 (centres unmarked) [Compound 390]	
120	75	116		NC1=Nc2ccc(Oc3ccccc3)cc2CN1C(CCNC(=O)C1CCCC1)C1CCCCC1 (centres unmarked) [Compound 392]	
			0.026	CC(C)C(CNC(=O)C12CC3CC(CC(C3)C1)C2)N1Cc2cc(Oc3ccccc3)ccc2N=C1N (centres unmarked) [Compound 562]	inhibition at 0.3 µM (β-secretase (BACE) [2]; 0.3 μM test compound): 106%; inhibition at 1 µM (β-secretase (BACE) [2]; 1 μM test compound): 118%; inhibition at 3 µM (β-secretase (BACE) [2]; 3 μM test compound): 128%
			0.33	NC1=Nc2ccc(-c3ccccc3)cc2CN1CCNC(=O)Cc1ccccc1 [Compound 595]	inhibition at 0.3 µM (β-secretase (BACE) [2]; 0.3 μM test compound): 32%; inhibition at 1 µM (β-secretase (BACE) [2]; 1 μM test compound): 70%; inhibition at 3 µM (β-secretase (BACE) [2]; 3 μM test compound): 104%
			0.3	CN(C(=O)CC[C@@H](C1CCCCC1)N1Cc2cc(Oc3ccccc3)ccc2N=C1N)C1CCC2(CC1)OCCO2 [Compound 710]	inhibition at 0.3 µM (β-secretase (BACE) [2]; 0.3 μM compound, FS1 substrate): < 30%; inhibition at 1 µM (β-secretase (BACE) [2]; 1 μM compound, FS1 substrate): 68%; inhibition at 3 µM (β-secretase (BACE) [2]; 3 μM compound, FS1 substrate): 126%
			0.45	CN(C(=O)CC[C@@H](C1CCCCC1)N1Cc2cc(Oc3ccccc3)ccc2N=C1N)C1CCC(=O)CC1 [Compound 711]	inhibition at 0.3 µM (β-secretase (BACE) [2]; 0.3 μM compound, FS1 substrate): < 30%; inhibition at 1 µM (β-secretase (BACE) [2]; 1 μM compound, FS1 substrate): 43%; inhibition at 3 µM (β-secretase (BACE) [2]; 3 μM compound, FS1 substrate): 113%
			0.38	CC(C)N1CCC(N(C)C(=O)CC[C@@H](C2CCCCC2)N2Cc3cc(Oc4ccccc4)ccc3N=C2N)CC1 [Compound 728]	inhibition at 0.3 µM (β-secretase (BACE) [2]; 0.3 μM compound, FS1 substrate): 43%; inhibition at 1 µM (β-secretase (BACE) [2]; 1 μM compound, FS1 substrate): 58%; inhibition at 3 µM (β-secretase (BACE) [2]; 3 μM compound, FS1 substrate): 97%
			0.088	COC(=O)[C@H]1CC[C@H](NC(=O)CC[C@@H](C2CCOCC2)N2Cc3cc(Oc4ccccc4)ccc3N=C2N)CC1 [Compound 747]	inhibition at 0.3 µM (β-secretase (BACE) [2]; 0.3 μM compound, FS1 substrate): 41%; inhibition at 1 µM (β-secretase (BACE) [2]; 1 μM compound, FS1 substrate): 74%; inhibition at 3 µM (β-secretase (BACE) [2]; 3 μM compound, FS1 substrate): 104%
			0.221	CN(CCCCC(=O)O)C(=O)CC[C@@H](C1CCCCC1)N1Cc2cc(Oc3ccccc3)ccc2N=C1N [Compound 752]	inhibition at 0.3 µM (β-secretase (BACE) [2]; 0.3 μM compound, FS1 substrate): 45%; inhibition at 1 µM (β-secretase (BACE) [2]; 1 μM compound, FS1 substrate): 81%; inhibition at 3 µM (β-secretase (BACE) [2]; 3 μM compound, FS1 substrate): 109%
			0.038	CN(C(=O)CCC(C1CCCCC1)N1Cc2cc(Oc3ccccc3)ccc2N=C1N)C(COCc1ccccc1)C(=O)O (centres unmarked) [Compound 781]	inhibition at 0.3 µM (β-secretase (BACE) [2]; 0.3 μM compound, FS1 substrate): 106%; inhibition at 1 µM (β-secretase (BACE) [2]; 1 μM compound, FS1 substrate): 109%; inhibition at 3 µM (β-secretase (BACE) [2]; 3 μM compound, FS1 substrate): 121%
